± gives the standard deviation of the averaged measurements.
What was measured:
Settings in all cases: 72 h
Calu-3 [1] = test: drug sensitivity score (DSS) for viability; higher = more toxic; extreme values may be limits of the assay
Caco-2 [2] = test: as above
HepG2 [3] = test: as above
U2OS [4] = test: as above
Vero E6 [5] = test: as above
Calu-3 [6] = test: cell viability relative to DMSO; higher = less toxic
Caco-2 [7] = test: as above
HepG2 [8] = test: as above
U2OS [9] = test: as above
Vero E6 [10] = test: as above
Calu-3 [11] = test: relative viability EC50 (midpoint between 100% and the lowest measured viability); higher = less toxic
Caco-2 [12] = test: as above
HepG2 [13] = test: as above
U2OS [14] = test: as above
Vero E6 [15] = test: as above

Structure (SMILES)	drug sensitivity score (Calu-3 [1])	drug sensitivity score (Caco-2 [2])	drug sensitivity score (HepG2 [3])	drug sensitivity score (U2OS [4])	drug sensitivity score (Vero E6 [5])	cell viability (Calu-3 [6]; 1 nM)	cell viability (Calu-3 [6]; 10 nM)	cell viability (Calu-3 [6]; 100 nM)	cell viability (Calu-3 [6]; 1000 nM)	cell viability (Calu-3 [6]; 10000 nM)	cell viability (Caco-2 [7]; 1 nM)	cell viability (Caco-2 [7]; 10 nM)	cell viability (Caco-2 [7]; 100 nM)	cell viability (Caco-2 [7]; 1000 nM)	cell viability (Caco-2 [7]; 10000 nM)	cell viability (HepG2 [8]; 1 nM)	cell viability (HepG2 [8]; 10 nM)	cell viability (HepG2 [8]; 100 nM)	cell viability (HepG2 [8]; 1000 nM)	cell viability (HepG2 [8]; 10000 nM)	cell viability (U2OS [9]; 1 nM)	cell viability (U2OS [9]; 10 nM)	cell viability (U2OS [9]; 100 nM)	cell viability (U2OS [9]; 1000 nM)	cell viability (U2OS [9]; 10000 nM)	cell viability (Vero E6 [10]; 1 nM)	cell viability (Vero E6 [10]; 10 nM)	cell viability (Vero E6 [10]; 100 nM)	cell viability (Vero E6 [10]; 1000 nM)	cell viability (Vero E6 [10]; 10000 nM)	relative viability EC50 (Calu-3 [11])	relative viability EC50 (Caco-2 [12])	relative viability EC50 (HepG2 [13])	relative viability EC50 (U2OS [14])	relative viability EC50 (Vero E6 [15])
N[C@@H](C(=O)O)c1ccc(C(=O)O)c(O)c1 (racemic) [4-carboxy-3-hydroxyphenylglycine-(RS)]	0	0	0	0	0	94.7 ± 5.6%	91.5 ± 6.3%	95.95 ± 0.35%	94.5 ± 1.1%	99.5 ± 2%	98.6%	97.4%	92.6%	110%	103%	99.7 ± 6.4%	113 ± 12%	104 ± 6.9%	107 ± 4%	98.7 ± 16%	97.1 ± 3%	99.4 ± 2.1%	97.8 ± 3.1%	98.7 ± 4.6%	105 ± 1.8%	101.5 ± 0.78%	98.35 ± 0.49%	97.35 ± 0.92%	102 ± 5.4%	105 ± 12%	> 10 µM	> 10 µM	> 10 µM	> 10 µM	> 10 µM
C[C@@]1(O)[C@H](O)[C@@H](CO)O[C@H]1n1cnc2c(NC3CCCC3)nc(Cl)nc21 [2'-MeCCPA]	0	0	0	0	0	93.9%	98%	96.5%	100%	91.4%	95.9%	100%	102%	105%	103%	95.6%	95.5%	101%	97.7%	96.8%	96.9%	100%	96.8%	99.6%	100%	105%	98.7%	100%	98.9%	102%	> 10 µM	> 10 µM	> 10 µM	> 10 µM	> 10 µM
c1ccc2sc(N3CCN(Cc4ccc5c(c4)OCO5)CC3)nc2c1 [2-[1-(4-piperonyl)piperazinyl]benzothiazole]	0	0	0	0	0	102%	92.8%	103%	98.6%	90.5%	103%	92.2%	98.9%	90.3%	100%	98.4%	108%	100%	96%	103%	97.2%	98%	106%	96.1%	104%	92%	94.8%	91.7%	95.8%	100%	> 10 µM	> 10 µM	> 10 µM	> 10 µM	> 10 µM
Cc1ncc[nH]1 [2-methylimidazole]	0	0	0	0	0	96.7%	97.1%	112%	107%	117%	98.7%	97.4%	92.6%	107%	104%	95.3%	95.7%	89.7%	96.2%	91.5%	98.7%	97.4%	101%	97.8%	99%	96.2%	97.8%	96.1%	94.9%	108%	> 10 µM	> 10 µM	> 10 µM	> 10 µM	> 10 µM
CC(=O)OCC1=C(C(=O)O)N2C(=O)[C@@H](N)[C@H]2SC1 [7-aminocephalosporanic-acid]	0	0	0	0	0	116%	102%	97.5%	99.5%	115%	101%	106%	102%	98.7%	100%	105%	117%	109%	115%	99.7%	101%	99%	100%	97.8%	101%	97.5%	100%	96.4%	95.5%	98.8%	> 10 µM	> 10 µM	> 10 µM	> 10 µM	> 10 µM
O=C(O)c1c2ccccc2cc2ccccc12 [9-anthracenecarboxylic-acid]	0	0	0	0	0	97.1%	97.9%	99.4%	101%	96%	93.1%	95.8%	95%	100%	105%	101%	90.5%	102%	104%	102%	100%	100%	101%	101%	103%	98.4%	97.1%	98%	94.7%	103%	> 10 µM	> 10 µM	> 10 µM	> 10 µM	> 10 µM
O=C(CCCCCCNC(=O)c1cnc(N(c2ccccc2)c2ccccc2)nc1)NO [ACY-1215]	6	4.9	7	5.6	3.2	107%	93.5%	100%	82%	38.6%	108%	92.8%	106%	94.3%	27.2%	96.5%	108%	87.3%	86%	16.2%	102%	101%	107%	88.6%	33.3%	92.9%	100%	94.2%	96.9%	47.7%	1.42 µM	2.53 µM	1.89 µM	1.87 µM	2.7 µM
CCN1CCN(Cc2ccc(-c3cc4c(N[C@H](C)c5ccccc5)ncnc4[nH]3)cc2)CC1 [AEE788]	13.7	2.4	0.2	5.1	10.9	100%	103%	84.9%	38.1%	3.7%	89.5%	91.9%	94.8%	81.9%	78%	109%	95.4%	98.1%	110%	82.5%	98.7%	95.7%	97.8%	86.7%	44.7%	97.6%	94.7%	82.2%	54.4%	27.1%	0.548 µM	> 10 µM	> 10 µM	1.58 µM	0.435 µM
Cc1c(CN(C)C(=O)/C=C/c2cnc3c(c2)CCC(=O)N3)oc2ccccc12 [AFN-1252]	0	0	0	0	0	103%	98.5%	102%	108%	98.1%	95%	93.1%	99%	101%	97.1%	110%	92.6%	106%	90.2%	110%	97.9%	101%	98.5%	101%	102%	94.2%	87.9%	93.6%	91.3%	97.7%	> 10 µM	> 10 µM	> 10 µM	> 10 µM	> 10 µM
Cc1cc(OCCN2CCOCC2)nn1-c1ccc2ccccc2c1 [API-001]	0	0	0	0	0	98.5%	83.4%	107%	115%	96.7%	93.2%	91.8%	96.4%	94.1%	92%	102%	111%	89.9%	102%	103%	98.2%	98.5%	102%	101%	102%	96.3%	96%	91.9%	94.8%	103%	> 10 µM	> 10 µM	> 10 µM	> 10 µM	> 10 µM
COc1ccccc1N1CCN(CCN2C(=O)c3ccccc3C(C)(C)C2=O)CC1 [ARC-239]	0	0	0	0	0	105%	104%	100%	102%	95%	102%	101%	91.3%	98.2%	92.6%	107%	95%	106%	102%	97.3%	96.8%	95.3%	97.9%	101%	95.9%	104%	95.2%	102%	102%	103%	> 10 µM	> 10 µM	> 10 µM	> 10 µM	> 10 µM
O=C(N[C@H]1CCN(C(=O)c2cc(C(F)(F)F)cc(C(F)(F)F)c2)[C@H](Cc2ccc(Cl)cc2)C1)c1ccnc2ccccc12 [AV-608]	0	1.3	0	0	0	115%	98.6%	101%	94.2%	99.4%	89.3%	95%	96.1%	97.4%	75.5%	96.2%	103%	98.9%	98.3%	97.3%	101%	98.8%	93.5%	100%	95.5%	96%	100%	101%	97.5%	95.7%	> 10 µM	> 10 µM	> 10 µM	> 10 µM	> 10 µM
C[C@@H]1COCCN1c1cc(C2(S(C)(=O)=O)CC2)nc(-c2cccc3[nH]ccc23)n1 [AZ20]	6	6.8	7.8	5.9	5.6	89.4%	97%	91.8%	82.3%	34.6%	88.1%	96.3%	89.5%	84.1%	23.1%	110%	110%	95.9%	65.6%	31.8%	97.4%	101%	95.9%	94.3%	9.3%	102%	98.2%	98.5%	85.4%	40%	1.57 µM	1.71 µM	0.973 µM	2.66 µM	1.57 µM
Cc1nn(C)c2c1C(c1ccc(C(F)(F)F)cc1)C(C#N)=C(N)O2 (stereo not given) [BQU57]	0	0	0	0	0	98.7%	104%	98.7%	108%	104%	94.3%	93.5%	95%	97.1%	89.2%	109%	97.9%	103%	99%	102%	98%	101%	98.8%	100%	102%	104%	104%	103%	101%	99.7%	> 10 µM	> 10 µM	> 10 µM	> 10 µM	> 10 µM
